Assay results as given in patent US8192962B2, “Processes for detecting toxic substances” (Daikin Industries, Ltd., priority 2001, dated 2012).

Test system: Energy system protein genes
Assay: DNA chip mRNA expression in yeast, energy system protein genes (Table 4)
Assay type: cell-based, Saccharomyces cerevisiae S288C
Method in brief: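 Whole-genome yeast DNA chip hybridization (65° C., >12 h) of Cy-labeled cDNA from S288C cells exposed 2 h at 25° C. to a sub-lethal toxicant dose in YPD; value is intensity relative to chemical-free control.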

Measured: The level of expressed mRNA in the presence of chemical substance/The level of expressed mRNA in the absence of chemical substance

manganese ethylenebis(dithiocarbamate) [(8)]
18.0: yeast gene YFL057C
2.7: yeast gene YDL021W
0.7: yeast gene YCL040W | yeast gene YGL187C, cells incubated two hours with the chemical substance | yeast gene YJR121W, cells incubated two hours with the chemical substance | yeast gene YLR044C, cells incubated two hours with the chemical substance | yeast gene YLR377C, cells incubated two hours with the chemical substance | yeast gene YMR205C, cells incubated two hours with the chemical substance | yeast gene YMR261C, cells incubated two hours with the chemical substance | yeast gene YOR388C, cells incubated two hours with the chemical substance | yeast gene YPR184W, cells incubated two hours with the chemical substance
17.8: yeast gene YOL165C
1.5: yeast gene YJL052W | yeast gene YKR058W, cells incubated two hours with the chemical substance, 25° C., YPD medium | yeast gene YMR267W, cells incubated two hours with the chemical substance, 25° C., YPD medium | yeast gene YPR048W, cells incubated two hours with the chemical substance
1.0: yeast gene YDL078C, cells incubated two hours with the chemical substance | yeast gene YEL024W, cells incubated two hours with the chemical substance | yeast gene YGL256W, cells incubated two hours with the chemical substance | yeast gene YIR031C, cells incubated two hours with the chemical substance | yeast gene YJL121C, cells incubated two hours with the chemical substance | yeast gene YLR395C, cells incubated two hours with the chemical substance | yeast gene YMR118C | yeast gene YPL031C, cells incubated two hours with the chemical substance | yeast gene YPL262W, cells incubated two hours with the chemical substance | yeast gene YPL275W, cells incubated two hours with the chemical substance
13.1: yeast gene YNL331C
20.5: yeast gene YPL171C
0.6: yeast gene YDL181W, cells incubated two hours with the chemical substance | yeast gene YLR304C, cells incubated two hours with the chemical substance
0.9: yeast gene YAL060W | yeast gene YCR046C, cells incubated two hours with the chemical substance | yeast gene YDR001C | yeast gene YDR178W, cells incubated two hours with the chemical substance | yeast gene YJR048W | yeast gene YKR009C, cells incubated two hours with the chemical substance | yeast gene YLR258W, cells incubated two hours with the chemical substance | yeast gene YML120C, cells incubated two hours with the chemical substance | yeast gene YNL071W | yeast gene YNL241C | yeast gene YOR178C, cells incubated two hours with the chemical substance | yeast gene YPL276W, cells incubated two hours with the chemical substance
0.8: yeast gene YBL099W, cells incubated two hours with the chemical substance | yeast gene YBR221C, cells incubated two hours with the chemical substance | yeast gene YCR012W | yeast gene YDL174C | yeast gene YER178W | yeast gene YGL018C, cells incubated two hours with the chemical substance | yeast gene YGL062W | yeast gene YGR062C, cells incubated two hours with the chemical substance, 25° C., YPD medium | yeast gene YGR087C, cells incubated two hours with the chemical substance | yeast gene YKL141W, cells incubated two hours with the chemical substance | yeast gene YKL148C, cells incubated two hours with the chemical substance | yeast gene YLL041C, cells incubated two hours with the chemical substance | yeast gene YLR134W, cells incubated two hours with the chemical substance | yeast gene YMR323W, cells incubated two hours with the chemical substance | yeast gene YOL086C, cells incubated two hours with the chemical substance | yeast gene YOR142W, cells incubated two hours with the chemical substance | yeast gene YPL061W, cells incubated two hours with the chemical substance
10.6: yeast gene YJR155W
2.8: yeast gene YFR053C
2.5: yeast gene YKR097W
1.8: yeast gene YDL107W, cells incubated two hours with the chemical substance | yeast gene YGR244C
3.3: yeast gene YHR179W
2.6: yeast gene YDR079W, cells incubated two hours with the chemical substance | yeast gene YGR043C
1.2: yeast gene YBL058W, cells incubated two hours with the chemical substance | yeast gene YDR298C, cells incubated two hours with the chemical substance | yeast gene YGL205W, cells incubated two hours with the chemical substance | yeast gene YIL160C | yeast gene YLR284C, cells incubated two hours with the chemical substance | yeast gene YLR295C, cells incubated two hours with the chemical substance, 25° C., YPD medium | yeast gene YML129C, cells incubated two hours with the chemical substance | yeast gene YNL202W, cells incubated two hours with the chemical substance | yeast gene YPL240C
1.1: yeast gene YBR185C, cells incubated two hours with the chemical substance | yeast gene YDL067C, cells incubated two hours with the chemical substance | yeast gene YEL039C, cells incubated two hours with the chemical substance | yeast gene YGR192C | yeast gene YJR009C | yeast gene YKL060C, cells incubated two hours with the chemical substance | yeast gene YMR073C, cells incubated two hours with the chemical substance
1.9: yeast gene YJL216C, cells incubated two hours with the chemical substance | yeast gene YPL088W
1.6: yeast gene YGL191W, cells incubated two hours with the chemical substance | yeast gene YGR174C, cells incubated two hours with the chemical substance | yeast gene YKL016C, cells incubated two hours with the chemical substance
1.3: yeast gene YBR001C, cells incubated two hours with the chemical substance | yeast gene YDR050C, cells incubated two hours with the chemical substance | yeast gene YDR231C | yeast gene YDR377W, cells incubated two hours with the chemical substance | yeast gene YDR529C, cells incubated two hours with the chemical substance | yeast gene YML087C
1.4: yeast gene YCR105W, cells incubated two hours with the chemical substance | yeast gene YGR254W | yeast gene YJL166W, cells incubated two hours with the chemical substance | yeast gene YLR038C, cells incubated two hours with the chemical substance | yeast gene YLR345W | yeast gene YLR354C, cells incubated two hours with the chemical substance
